Columns and labels:
[1] = target: T1, Mcl-1/Bim interaction, recombinant human Mcl-1 (171-327) (Homo sapiens, UniProt Q07820); assay: Cell free Mcl-1: Bim Affinity Assay (Mcl-1 HTRF); format: binding
T1 construct: made in house
Method in brief: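 Biotin-Bim(51-76) peptide, TR-FRET readout, overnight incubation; IC50 from duplicate competition curves, 4-parameter fit.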

[2] = system: OPM-2 human multiple myeloma cell line; assay: Cell Viability Assay (OPM-2 10 FBS); format: cell-based; details: OPM-2 cells, CellTiter-Glo
Method in brief: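 IC50 from 4-parameter logistic fit of CellTiter-Glo luminescence. 3000 cells/well, 10% FBS medium, serial compound dilutions, 16 h, 37 °C/5% CO2; read 25 min post-reagent.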

[3] = TR-FRET, 0.1 nM Mcl-1 (171-327), 0.05 nM biotin-Bim (51-76)
[4] = Homo sapiens, OPM-2, 16 h, 16 h incubation
[5] = cell free Mcl-1:Bim TR-FRET, recombinant human Mcl-1 (171-327)
[6] = Homo sapiens, OPM-2, 16 h, 16 h

T1 sequence (Q07820 171-327): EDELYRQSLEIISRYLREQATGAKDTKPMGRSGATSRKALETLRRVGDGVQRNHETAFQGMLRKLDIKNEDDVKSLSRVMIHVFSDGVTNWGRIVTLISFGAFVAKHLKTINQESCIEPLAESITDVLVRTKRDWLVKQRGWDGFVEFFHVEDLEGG

Structure (SMILES)	IC50 [1, 3] [µM]	IC50 [1, 5] [µM]	IC50 [2, 6] [µM]	IC50 ([2]; 16 h) [µM]	further results
CC[C@@H]1CC/C=C/[C@H](OCCS(=O)(=O)N(C)C)[C@@H]2CC[C@H]2CN2C[C@@]3(CCCc4cc(Cl)ccc43)COc3ccc(cc32)C(=O)NS1(=O)=O [Example 989, 2-(((1S,3′R,6′R,7′S,8′E,12′R)-6-chloro-12′-ethyl-13′,13′-dioxido-15′-oxo-3,4-dihydro-2H-spiro[naphthalene-1,22′-[20]oxa[13]thia[1,14]diazatetracyclo[14.7.2.0^3,6.0^19,24]pentacosa [8,16,18,24]tetraen]-7′-yl)oxy)-N,N-dimethylethanesulfonamide]	0.000851	–	–	–	IC50 [2, 4]: 0.331 µM
CO[C@H]1/C=C/CC[C@@H](C(=O)N(C)C)S(=O)(=O)NC(=O)c2ccc3c(c2)N(C[C@@H]2CC[C@H]21)C[C@@]1(CCCc2cc(Cl)ccc21)CO3 (single isomer, unassigned) [Example 452]	0.000277	–	–	0.775	–
CCOC[C@@H]1[C@@H](C)C/C=C/[C@H](O)[C@@H]2CC[C@H]2CN2C[C@@]3(CCCc4cc(Cl)ccc43)COc3ccc(cc32)C(=O)NS1(=O)=O (single isomer, unassigned) [Example 466]	0.000331	–	–	0.128	–
CO[C@@H]1/C=C/[C@H](O)[C@@H]2CC[C@H]2CN2C[C@@]3(CCCc4cc(Cl)ccc43)COc3ccc(cc32)C(=O)NS(=O)(=O)[C@H](C)C1 (single isomer, unassigned) [Example 489]	–	0.000666	–	1.23	–
COC[C@@H]1C[C@H](C)/C=C/[C@H](O)[C@@H]2CC[C@H]2CN2C[C@@]3(CCCc4cc(Cl)ccc43)COc3ccc(cc32)C(=O)NS1(=O)=O (single isomer, unassigned) [Example 472]	–	0.00027	–	0.207	–
O=C1NS(=O)(=O)C(c2ccccc2)CC/C=C/[C@H](O)[C@@H]2CC[C@H]2CN2C[C@@]3(CCCc4cc(Cl)ccc43)COc3ccc1cc32 (single isomer, unassigned) [Example 674]	–	0.0082	–	1.09	–
C[C@H]1[C@H]2/C=C/[C@H](O)[C@@H]3CC[C@H]3CN3C[C@@]4(CCCc5cc(Cl)ccc54)COc4ccc(cc43)C(=O)NS(=O)(=O)[C@H]1CCC2 (single isomer, unassigned) [Example 111]	0.0307	–	17.8	–	–
O=C1NS(=O)(=O)[C@H]2CC[C@@H]2C/C=C/[C@H](O)[C@@H]2CC[C@H]2CN2C[C@@]3(CCCc4cc(Cl)ccc43)COc3ccc1cc32 (single isomer, unassigned) [Example 90]	0.00044	–	0.323	–	–
COC(=O)CC[C@@]1(C)CC/C=C\[C@H](O)[C@@H]2CC[C@H]2CN2C[C@@]3(CCCc4cc(Cl)ccc43)COc3ccc(cc32)C(=O)NS1(=O)=O (single isomer, unassigned) [Example 563]	–	0.00269	–	4.5	–
CO[C@H]1/C=C/C[C@H]2COCC[C@@H]2S(=O)(=O)NC(=O)c2ccc3c(c2)N(C[C@@H]2CC[C@H]21)C[C@@]1(CCCc2cc(Cl)ccc21)CO3 (single isomer, unassigned) [Example 321]	0.00229	–	–	2.18	–
CC(C)(C)S(=O)(=O)CC[C@@H]1CC/C=C/[C@H](O)[C@@H]2CC[C@H]2CN2C[C@@]3(CCCc4cc(Cl)ccc43)COc3ccc(cc32)C(=O)NS1(=O)=O.CC(C)(C)S(=O)(=O)CC[C@H]1CC/C=C/[C@H](O)[C@@H]2CC[C@H]2CN2C[C@@]3(CCCc4cc(Cl)ccc43)COc3ccc(cc32)C(=O)NS1(=O)=O (mixture of isomers) [Example 154]	0.000258	–	–	7.58	–
COCC[C@H]1[C@@H](C)C/C=C/[C@H](OC)[C@@H]2CC[C@H]2CN2C[C@@]3(CCCc4cc(Cl)ccc43)COc3ccc(cc32)C(=O)NS1(=O)=O (single isomer, unassigned) [Example 396]	0.000384	–	–	0.186	–
CO[C@H]1/C=C/C[C@H](CF)[C@@H](C)S(=O)(=O)NC(=O)c2ccc3c(c2)N(C[C@@H]2CC[C@H]21)C[C@@]1(CCCc2cc(Cl)ccc21)CO3 [Example 5, (1S,3′R,6′R,7′S,8′E,11′R,12′R)-6-chloro-11′-(fluoromethyl)-7′-methoxy-12′-methyl-3,4-dihydro-2H,15′H-spiro[naphthalene-1,22′-[20]oxa[13]thia[1,14]diazatetracyclo[14.7.2.0^3,6.0^19,24]pentacosa [8,16,18,24]tetraen]-15′-one 13′,13′-dioxide]	0.00054	–	0.329	–	–
C[C@H]1C/C=C/[C@H](O)[C@@H]2CC[C@H]2CN2C[C@@]3(CCCc4cc(Cl)ccc43)COc3ccc(cc32)C(=O)NS(=O)(=O)[C@@H]1c1ccccc1 (single isomer, unassigned) [Example 653]	–	0.000722	–	0.371	–
O=C1NS(=O)(=O)[C@@H]2CCC[C@H](/C=C/[C@H](O)[C@@H]3CC[C@H]3CN3C[C@@]4(CCCc5cc(Cl)ccc54)COc4ccc1cc43)C2 (single isomer, unassigned) [Example 109]	0.00134	–	–	12.2	–
COCCO[C@H]1/C=C/C[C@H]2C[C@@H]2S(=O)(=O)NC(=O)c2ccc3c(c2)N(C[C@@H]2CC[C@H]21)C[C@@]1(CCCc2cc(Cl)ccc21)CO3 (single isomer, unassigned) [Example 805]	–	0.00106	–	0.719	–
CC1CC(C)CS(=O)(=O)NC(=O)c2ccc3c(c2)N(CC2CCC2C(O)C1)CC1(CCCc2cc(Cl)ccc21)CO3 (single isomer, unassigned) [Example 270]	0.00103	–	–	0.116	–
C[C@@H]1[C@@H](C)S(=O)(=O)NC(=O)c2ccc3c(c2)N(C[C@@H]2CC[C@H]2[C@H](O)/C=C/[C@@H]1C)C[C@@]1(CCCc2cc(Cl)ccc21)CO3 (single isomer, unassigned) [Example 1068]	0.000442	–	–	–	IC50 ([2]; 16 h incubation): 1.96 µM

Second part, led by results:

IC50 [1, 3] [µM]	IC50 [1, 5] [µM]	IC50 [2, 6] [µM]	Structure (SMILES)	IC50 ([2]; 16 h) [µM]	further results
0.0004	–	–	CC[C@@H]1CC/C=C/[C@H](O[C@H]2CCOC2=O)[C@@H]2CC[C@H]2CN2C[C@@]3(CCCc4cc(Cl)ccc43)COc3ccc(cc32)C(=O)NS1(=O)=O (single isomer, unassigned) [Example 425]	0.304	–
–	0.00275	–	O=C1NS(=O)(=O)C/C=C/[C@]2(O)CCO[C@@H](C2)[C@@H]2CC[C@H]2CN2C[C@@]3(CCCc4cc(Cl)ccc43)COc3ccc1cc32 (single isomer, unassigned) [Example 918]	15.1	–
0.000151	–	2.28	C[C@@H]1[C@@H](C)C/C=C/[C@H](OCC(=O)N2CC(O)C2)[C@@H]2CC[C@H]2CN2C[C@@]3(CCCc4cc(Cl)ccc43)COc3ccc(cc32)C(=O)NS1(=O)=O [Example 304, (1S,3′R,6′R,7′S,8′E,11′S,12′R)-6-chloro-7′-(2-(3-hydroxy-1-azetidinyl)-2-oxoethoxy)-11′,12′-dimethyl-3,4-dihydro-2H,15′H-spiro[naphthalene-1,22′-[20]oxa[13]thia[1,14]diazatetracyclo[14.7.2.0^3,6.0^19,24]pentacosa [8,16,18,24]tetraen]-15′-one 13′,13′-dioxide]	–	–
0.000127	–	14.4	C[C@@H]1CC/C=C/[C@H](OCC(=O)O)[C@@H]2CC[C@H]2CN2C[C@@]3(CCCc4cc(Cl)ccc43)COc3ccc(cc32)C(=O)NS1(=O)=O [Example 407, (((1S,3′R,6′R,7′S,8′E,12′R)-6-chloro-12′-methyl-13′,13′-dioxido-15′-oxo-3,4-dihydro-2H-spiro[naphthalene-1,22′-[20]oxa[13]thia[1,14]diazatetracyclo[14.7.2.0^3,6.0^19,24]pentacosa [8,16,18,24]tetraen]-7′-yl)oxy)acetic acid]	–	–
–	0.000376	0.416	O=C1NS(=O)(=O)NCCC/C=C/[C@H](O)[C@@H]2CC[C@H]2CN2C[C@@]3(CCCc4cc(Cl)ccc43)COc3ccc1cc32 [Example 660, (1S,3′R,6′R,7′S,8′E)-6-chloro-7′-hydroxy-3,4-dihydro-2H,16′H-spiro[naphthalene-1,23′-[21]oxa[14]thia[1,13,15]triazatetracyclo[15.7.2.0^3,6.0^20,25]hexacosa[8,17,19,25]tetraen]-16′-one 14′,14′-dioxide]	–	–
0.00057	–	0.842	C=CCN1CC/C=C/[C@H](O)[C@@H]2CC[C@H]2CN2C[C@@]3(CCCc4cc(Cl)ccc43)COc3ccc(cc32)C(=O)NS1(=O)=O [Example 42, (1S,3′R,6′R,7′S,8′E)-6-chloro-7′-hydroxy-12′-(2-propen-1-yl)-3,4-dihydro-2H,15′H-spiro[naphthalene-1,22′-[20]oxa[13]thia[1,12,14]triazatetracyclo[14.7.2.0^3,6.0^19,24]pentacosa[8,16,18,24]tetraen]-15′-one 13′,13′-dioxide]	–	–
0.00309	–	–	CC[C@@H]1CC/C=C/[C@H](OCc2nccs2)[C@@H]2CC[C@H]2CN2C[C@@]3(CCCc4cc(Cl)ccc43)COc3ccc(cc32)C(=O)NS1(=O)=O [Example 990, (1S,3′R,6′R,7′S,8′E,12′R)-6-chloro-12′-ethyl-7′-(1,3-thiazol-2-ylmethoxy)-3,4-dihydro-2H,15′H-spiro[naphthalene-1,22′-[20]oxa[13]thia[1,14]diazatetracyclo[14.7.2.0^3,6.0^19,24]pentacosa [8,16,18,24]tetraen]-15′-one 13′,13′-dioxide]	–	IC50 [2, 4]: 2.23 µM
–	0.000682	0.202	C[C@@H]1[C@@H](C)C/C=C/[C@H](OCCNS(C)(=O)=O)[C@@H]2CC[C@H]2CN2C[C@@]3(CCCc4cc(Cl)ccc43)COc3ccc(cc32)C(=O)NS1(=O)=O [Example 735, N-(2-(((1S,3′R,6′R,7′S,8′E,11′S,12′R)-6-chloro-11′,12′-dimethyl-13′, 13′-dioxido-15′-oxo-3,4-dihydro-2H-spiro[naphthalene-1,22′-[20]oxa[13]thia[1,14]diazatetracyclo[14.7.2.0^3,6.0^19,24]pentacosa[8,16,18,24]tetraen]-7′-yl)oxy)ethyl)Methanesulfonamide]	–	–
